{
  "source": "patent US12702677B2",
  "about": "(priority 2008, dated 2026)",
  "key": {"[1]": {"tested_on": "matrix metalloproteinase 9 (MMP-9) expression", "experiment": "Quantikine Human MMP-9 (total) immunoassay, MMP-9 expression in influenza-A-infected Vero cells", "assay_type": "cell-based, African Green Monkey", "conditions": "influenza A-infected Vero cell supernatants, FIGS. 5 and 6", "protocol": "A Quantikine Human MMP-9 (total) Immunoassay Assay, R&D Systems, was used to quantify expression of MMP-9 in infected cells according to the manufacturer's protocol, which is incorporated herein by reference.\nVero cells were plated at 1e^5 cells/mL in a 100 uL volume in tissue culture treated 96 well plates. The following day cells were infected with virus at a multiplicity of infection of 10 and viral activity was measured. For testing compounds, cells were preincubated with compound 1 hr prior to infection. After overnight incubation, the cells were harvested, lysed, and supernatants were subjected to assay.\nThis MMP-9 assay employs the quantitative sandwich enzyme immunoassay technique. A monoclonal antibody specific for MMP-9 has been pre-coated onto a microplate. Standards and samples are pipetted into the wells, and MMP-9 is bound by the immobilized antibody. After washing away unbound substances, an enzyme-linked polyclonal antibody specific for MMP-9 is added to the wells. Following a wash to remove unbound antibody-enzyme reagent, a substrate solution is added to the wells and color develops in proportion to the amount of total MMP-9 (pro and/or active) bound in the initial step. The color development is stopped and the intensity of the color is measured.\nTest formulations are shown in Example 5, Table 1. […]"}, "A or B influenza virus": {"tested_on": "A or B influenza virus", "conditions": "started during the first 48 hours after onset of symptoms; cited from earlier work"}, "[2]": {"conditions": "adults; cited from earlier work"}, "[3]": {"conditions": "animal studies, substantially high doses; cited from earlier work"}},
  "data": [
    {"compound": "CCOC(=O)C1=C[C@@H](OC(CC)CC)[C@H](NC(C)=O)[C@@H](N)C1", "note": "[Formula T, oseltamivir phosphate]", "values": [
      {"measurement": "inhibition of expression of MMP-9", "setting": "[1]", "value": "pronounced dose-dependent inhibition of expression of MMP-9"},
      {"measurement": "inhibition of expression of MMP-9", "setting": "[1]; listed as Tamiflu®", "value": "inhibits expression of MMP-9"},
      {"measurement": "reduction of the duration of a typical seven day illness", "setting": "A or B influenza virus", "value": "about one"}
    ]},
    {"compound": "CC(=O)N[C@H]1[C@H]([C@H](O)[C@H](O)CO)OC(C(=O)O)=C[C@@H]1N=C(N)N", "note": "[Relenza®, zanamivir]", "values": [
      {"measurement": "reduction of the duration of a typical seven day illness", "setting": "A or B influenza virus", "value": "about one"}
    ]},
    {"compound": "Cc1ncc(CO)c(CO)c1O", "note": "[Vitamin B6, Pyridoxine]", "values": [
      {"measurement": "safe intake", "setting": "[2]", "value": "up to 200 mg per day"}
    ]},
    {"compound": "CC(N)C12CC3CC(CC(C3)C1)C2", "note": "(stereo not drawn) [rimantadine]", "values": [
      {"measurement": "teratogenicity and embryotoxicity", "setting": "[3]", "value": "teratogenic and embryotoxic"}
    ]}
  ]
}
